The test system of one data set is AOM-induced colon cancer. The note with it: up to 5.4 ppm in water; cited from earlier work.
The conditions of data set [1]: mice, at 60 and 90 days; as selenocysteine; cited from earlier work.
Data set [2] is described as follows: Selenium incorporation into colon tissue (ICP-AES). It counts as in vivo, rat. As for the experimental part:
Measurement of selenium incorporation into colon tissue: inductively coupled plasma (ICP) method: Colon tissue samples were prepared for analysis of selenium content by microwave-assisted digestion using an MLS 1200 mega microwave digestion unit [Milestone Sorisole (BG), Italy]. At the conclusion of the digestion period the vessels were allowed to cool down to room temperature and were uncapped. Liquid residues were taken up in water, transferred into 25-ml calibrated flasks and equilibrated to 25 ml volume with water. Analyses were conducted on portions of these solutions, versus multi-element selenium standards from Merck (Merck and Co, EMBD Biosciences, San Diego Calif.) in the same solvent. Selenium (Se) was determined by ICP-atomic emission spectrometry (AES) at 196.090 nm. An ICP-AES system, model “Spectroflame Modula E” from Spectro, Kleve, Germany was used with a cross-flow nebulizer. The power level was 1.2 kW, coolant flow 15 l/min, auxiliary flow 0.5 l/min and nebulizer flow 0.5 l/min. Observation height was 10 mm above the coil.

The subject of data set [3] is myeloperoxidase (MPO) activity. Nature of the data set: Tissue inflammation: myeloperoxidase activity in colon tissue. The note with it: 24 h after TNBS; 16 ppm sodium selenite in drinking water, three weeks (FIG. 3 column D). It counts as in vivo, rat. The procedure: Tissue inflammation-Myeloperoxidase activity: Colonic tissue samples (approximately 100-120 mg) were collected 4 cm proximal to the anus. Each tissue sample was homogenized in a solution containing 0.5% hexa-decyl-trimethyl-ammonium bromide (HTAB) (Sigma-Aldrich Corp, St. Louis, Mo.) buffer (0.5% HTAB in 50 mM phosphate buffer, pH 6.0). Tissue samples were minced in a test tube containing 1 ml of HTAB buffer on ice and homogenized with a Polytron tissue homogenizer (Brinkmann Instruments, Inc, Westbury N.Y., USA). The pooled homogenates and washes were sonicated in water for 20 seconds. After three cycles of freeze-thawing, the sonicated samples were centrifuged in cold for 15 min. at 40,000×g. Myeloperoxidase activity (MPO) was assayed in the supernatant as described by Krawisz (Krawisz et al., 1984) after addition of O-dianizidine-HCl (Sigma-Aldrich Corp, St Louis, Mo.) and 0.15% (v/v) H2O2 as a substrate for the MPO. The rate of change in absorbance was measured spectrophotometrically at 460 nm, and is expressed as the amount of enzyme necessary to produce a change in absorbance of 1.0 unit per minute (1 unit) per gram wet weight tissue.

For data set [4], the system named is glutathione peroxidase (GPx). The data set is described as follows: GPx activity in macrophage cell extract. In kind it is cell-based, murine. The following applies: 24 h; range 0.5-30 μM (FIG. 8B). As for the experimental part:
(§1) Cell culture: Murine J774.2 macrophages (kindly provided by Prof. Dov Zipori from the Weizmann Institute of Science) were grown in RPMI medium supplemented with 10% (w/v) fetal calf serum, penicillin (100 U/ml), streptomycin (100 μg/ml) and 1× glutamine at 37° C. in a humidified atmosphere consisting of 95% air and 5% CO2. Experiments were performed on cells at 60% confluence.
GPx activity: GPx activity was determined by following the rate of NADPH oxidation at 340 nm in the presence of the substrates: 3 mM glutathione (GSH), 1.2 U glutathione reductase (GR) and 1.5% H2O2, using a microfluorometer plate reader (GENios, Tecan, Austria). The reaction contained 500 μl Tris reaction buffer (100 mM Tris Hcl, 300 mM Kcl, 5 mM EDTA, 1 mM NaN3, pH 7.0), substrates and 100 μl cell extract. Macrophages were treated with selenium for 24 h. Wells were washed twice with PBS, cells permeabilized, and scraped using 200 μl 0.2% Triton X-100. The reaction was recorded every minute for 25 minutes. Slopes were calculated and the results were adjusted according to the protein amount calculated with the Bradford reagent.

For the next data set, the system named is MnSOD. The data set is described as follows: MnSOD transcription and expression (RTPCR, Western blot). The following applies: LPS + INFγ activated; 24 hours; range 0.5-5 μM (FIG. 11). It counts as cell-based, murine. The procedure: as §1
(§2) Western blots (Sp1, MnSOD, UCP2): Cells were grown in six-well tissue culture plates, treated with selenium for 72 h and activated with LPS and IFN-γ for 24 h. The wells were washed with PBS, scraped and centrifuged
(5 min. 2000 RPM), and lysed by addition of boiling hot lysis buffer (1% SDS, 1 mM sodium ortho-vanadate, 10 mM Tris pH 7.4) to the pellets. Protein content was measured (BIO RAD protein assay kit) and equalized. Sample buffer (containg SDS) was added and the samples were boiled. The samples were subjected to SDS-PAGE followed by western blot analysis. Separated proteins were transferred electrophoretically from the gel to a nitrocellulose membrane (Amersham International plc, Buckinghamshire, ENGLAND). The membrane was blocked in TBS (0.15 M NaCl/10 mM Tris/HCl, pH7.4) containing 5% (v/v) skimmed milk (Blotto), then incubated over night with primary antibodies at RT (diluted 1/2000 in blotto). After being washed six times in TBST [TBS containing 0.05% (v/v) Tween 20], the membrane was incubated for 2 h at room temperature with secondary antibody (diluted 1/5000 in blotto). Immunoreactive bands were detected with ECL western blotting detection reagents (Amersham Pharmacia Biotech, Buckingammshire England) and developed on film (Fuji super RX, Dusseldorf, Germany). […]
Right (antisense) 5′[…]-3′ (SEQ ID NO: 6) corresponding to nucleotides 622 to 640 of mouse mRNA region (GenBank Accession No. NM 013671). […] Actual PCR product was approximately 570 bp, measured on 1.25% agarose gel in TAE containing ethidium bromide.
(§3) PCR was performed with 28 cycles (25 cycles for GAPDH) of 30 seconds at 96° C., 30 seconds at 58° C. and 1 min at 72° C. RTPCR products were analyzed on 1.3% (w/v) agarose gels.
(In western blotting, separated proteins are transferred to a membrane and probed.)

The test system of another data set is UCP2. Nature of the data set: UCP2 transcription and expression (RTPCR, Western blot). It counts as cell-based, murine. As for the experimental part: as §1, §2
(5 min. 2000 RPM), and lysed by addition of boiling hot lysis buffer (1% SDS, 1 mM sodium ortho-vanadate, 10 mM Tris pH 7.4) to the pellets. Protein content was measured (BIO RAD protein assay kit) and equalized. Sample buffer (containg SDS) was added and the samples were boiled. The samples were subjected to SDS-PAGE followed by western blot analysis. Separated proteins were transferred electrophoretically from the gel to a nitrocellulose membrane (Amersham International plc, Buckinghamshire, ENGLAND). The membrane was blocked in TBS (0.15 M NaCl/10 mM Tris/HCl, pH7.4) containing 5% (v/v) skimmed milk (Blotto), then incubated over night with primary antibodies at RT (diluted 1/2000 in blotto). After being washed six times in TBST [TBS containing 0.05% (v/v) Tween 20], the membrane was incubated for 2 h at room temperature with secondary antibody (diluted 1/5000 in blotto). Immunoreactive bands were detected with ECL western blotting detection reagents (Amersham Pharmacia Biotech, Buckingammshire England) and developed on film (Fuji super RX, Dusseldorf, Germany). Primary antibodies for Sp1 and MnSOD were from BD Transduction Laboratories (Becton Dickenson and Co., San Jose, Calif. USA) and for UCP2 from Alpha Diagnostics LTD (Warszaw, Poland). Secondary antibodies were from Jackson ImmunoResearch (Jackson Labs, Bar Harbor, Maine, USA).
Reverse transcriptase-PCR (RTPCR): Total RNA was prepared and isolated by the Tri-Reagent method according to the manufacturer's protocol (Sigma, St. Louis Mo., USA). Total RNA (1 μg) was converted into cDNA using Reverse-iT first strand synthesis kit (Abgene, UK). Amplification of MnSOD and UCP2 sequences was performed by incubating 10 ng equivalents of DNA with the following oligonucleotide primers:
Left (sense), 5′-[…]-3′ (SEQ ID NO:7) corresponding to nucleotides 372 to 392 of mouse mRNA (GenBank Accession No. NM 011671).
Right (antisense) 5′[…]-3′ (SEQ ID NO: 8) corresponding to nucleotides 826 to 846 of mouse mRNA (GenBank Accession No. NM 011671). The expected PCR product was 474 bp. Actual PCR product was approximately 474 bp, measured on 1.25% agarose gel in TAE containing ethidium bromide.
as §3

Data set [5] in a line: Cell viability (PI exclusion, flow cytometry). It counts as cell-based, murine. The note with it: mouse, 10 μM during or after activation (FIGS. 14A, 14B); read-out: decrease in cell viability, activated and inactivated cells. As for the experimental part:
Experiments were performed on cells at 60% confluence.
Determination of cell viability: Cell-membrane integrity was detected by flow cytometer (FACSort, Becton Dickenson and Co., San Jose, Calif. USA) as a measurement of cell viability. For this assay, the nonpermeant DNA-intercalating dye propidium iodide (PI), which is excluded by viable cells, was used. Fluorescence settings were excitation at 488 nm and emission at 575 nm. Data were collected from at least 10,000 cells.
For orientation: In flow cytometry, cells or beads pass a laser one at a time.

For data set [6] the following is noted: mice and rats; up to 0.8 mg/kg body weight selenium; cited from earlier work.
The test system of data set [7] is Electron Transport Chain (complex 1). The data set is described as follows: Oxygen consumption of fresh colon tissue with rotenone. The following applies: healthy rat colon tissue; 20 μg/ml rotenone (FIG. 4). As for the experimental part: Mitochondrial respiration activity in colon tissue: Mitochondrial respiration was measured by direct assessment of oxygen consumption of the tissue. Briefly, colons were removed, chilled on ice, and washed extensively with cold PBS. Colon tissue samples (5-10 mm in width, 100 mg) were incubated at ambient temperature in PBS supplemented with 5 mM glucose. Oxygen consumption was measured polarographically using a computerized Clark-type oxygen electrode. The addition of the Electron Transport Chain (complex 1) inhibitor rotenone was used to determine whether the majority of oxygen consumption measured in the colon samples was mitochondrial respiration-dependent.

“Also recorded” adds a separate entry of the source. A value given as a limit tells only on which side of the number the result lay.

With `C[Se]CC[C@H](N)C(=O)O` [selenomethionine], the anti-cancer treatment effect result in the data set with AOM-induced colon cancer is recorded as “ineffective”.
In the case of `N[C@@H](C[SeH])C(=O)O` [selenocysteine], the “dietary supplementation at which toxicity was observed” value in data set [1] is “greater than 10 mg selenium per kg body weight per day”.
Consider `O=[Se](O)O` [sodium selenite], for which the “increase in colon tissue selenium levels compared with healthy rats” value in [2] (colitis-induced rats, 24 h after TNBS, 16 ppm in water, three weeks (FIG. 1 C and D)) is “greater”. Also, the “colon tissue selenium vs untreated controls” value in data set [2] (healthy and colitis rats (columns B and D vs A and C), 16 ppm in drinking water, three weeks) is “enhanced levels”. In addition, the “protection against TNBS-induced inflammation (MPO activity)” value in [3] was greater than 80%. Moreover, in [4], the “concentration of maximum stimulation of GPx activity” value was 0.5 µM. The “lowest concentration effective in reducing MnSOD expression, activated macrophages” value with MnSOD was 1 µM. Also, in the data set on UCP2 (24 and 72 hours (FIG. 10A)), the “lowest concentration giving a significant decrease in UCP2 transcripts” value turned out to be 5 µM. Besides, the “reduction in detectable UCP2 protein” value with UCP2 (24 hours at 30 μM (FIG. 10B)) is “greater than 50%”. In addition, the “lowest concentration effective in reducing UCP2 expression, activated macrophages” value in the data set on UCP2 (LPS + INFγ activated, 24 hours, range 0.5-5 μM (FIG. 11)) was 1 µM. The cytotoxicity at 10 μM in data set [5] was no more than 60%. Further, the “adverse effects of long term supplementation” value in data set [6] is “no observable adverse effects”.
As to `C=C(C)[C@H]1Cc2c(ccc3c2O[C@@H]2COc4cc(OC)c(OC)cc4[C@@H]2C3=O)O1` [rotenone], the “respiration (O2 consumption) of colon tissue” value in data set [7] is given as “strongly inhibited; also recorded: significantly reduced”.

The record behind these values is US20070026090A1, “Treatment and prevention of inflammatory disease and mitochondrial dysfunction with high dose selenium” (priority 2003, published 2007).
